# Reference: patent US20250204515A1, “Heparanase Inhibition for Graft Protection” (University of Pittsburgh - Of the Commonwealth System of …, priority 2022, published 2025)
# Entries after “also recorded” stand apart in the source; their conditions may differ.
# Assays:
# IL-6, IL-1β, MMP-9 mRNA = test: Real-time RT-PCR in lung grafts 2 h after transplantation; assay type: in vivo, rat; conditions: for IL-1β mRNA expression / IL-6 mRNA expression: graft 2 h after reperfusion, vs control lung grafts; for MMP-9 mRNA expression: graft 2 h after transplantation, vs control
# Procedure: Real-time RT PCR. Lung tissues were collected after EVLP or 2 h after transplantation. Total RNA was extracted from the graft using TRIzol reagent (Life Technologies, Inc. Grand Island, NY) according to the manufacturer's instructions and purified by ethanol precipitation. RNA content was measured using 260/280 nm UV spectrophotometry.
# heparanase = molecular target: T1, heparanase (Rattus norvegicus, UniProt Q71RP1); test: Heparanase activity assay in rat lung tissue after 1 h warm ischemia; assay type: in vivo; conditions: rat donors given heparin 300 IU or NAH 300 μg i.v. 5 min before 1 h warm ischemia; vs untreated control
# T1 construct: isolated lung tissue lysate was applied to biotinylated heparan sulfate-coated wells; from tissue; host or cells: rat (Lewis) lung tissue lysate
# T1 sequence (Q71RP1 29-536): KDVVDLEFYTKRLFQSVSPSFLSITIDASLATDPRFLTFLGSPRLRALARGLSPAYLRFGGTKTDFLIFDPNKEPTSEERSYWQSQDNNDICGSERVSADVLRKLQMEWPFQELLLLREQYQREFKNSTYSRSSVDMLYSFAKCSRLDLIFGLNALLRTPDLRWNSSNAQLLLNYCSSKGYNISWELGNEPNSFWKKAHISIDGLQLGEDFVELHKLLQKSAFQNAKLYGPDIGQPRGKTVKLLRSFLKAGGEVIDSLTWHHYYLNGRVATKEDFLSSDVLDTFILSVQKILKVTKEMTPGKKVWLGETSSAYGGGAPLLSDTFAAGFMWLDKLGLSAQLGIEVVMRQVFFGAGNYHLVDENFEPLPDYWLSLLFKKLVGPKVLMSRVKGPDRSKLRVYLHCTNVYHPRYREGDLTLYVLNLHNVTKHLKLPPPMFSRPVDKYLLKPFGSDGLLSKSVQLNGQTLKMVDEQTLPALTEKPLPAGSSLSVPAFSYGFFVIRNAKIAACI
# Procedure: Models of lungs with damaged or preserved eGC and rat orthotopic left lung transplantation. Rats were sedated with 4% isoflurane via inhalation for tracheostomy and then placed on a ventilator. They received 5% isoflurane with 100% O2 via inhalation through the ventilator for 15 min to induce a deep state of anesthesia that causes arrest of spontaneous breathing. The rats were disconnected from the ventilator 5 min after intravenous administration of heparin (300 IU), a heparin derivative without anti-coagulant properties (300 μg; N-acetyl heparin (NAH) (Millipore Sigma, Burlington, MA)), or saline (300 μl, control) through the jugular vein. Cardiac activity and blood oxygen saturation were monitored after disconnection from ventilator until cardiac arrest. One hour after induction of ischemia, a median thoracotomy was performed, and blood was flushed from the lungs with cold, low potassium dextran solution (PERFADEX; XVIVO Perfusion AB) through the pulmonary artery. […]
# Heparanase activity assay. Heparanase activity was measured using a heparanase assay kit (AMS Bio-technology (Europe) Ltd., Abingdon, UK) to quantitate heparan sulfate degradation according to the manufacturer's instructions. […] After incubation and washing, the remaining heparan sulfate was detected using a biotin-streptavidin-HRP system.
# MMP-2 = test: Gelatin zymography of EVLP perfusate, donor-pretreated lungs; assay type: in vivo, rat; conditions: donor pre-treatment, vs control
# Procedure: Gelatin zymography. Gelatin zymography was performed to measure secreted MMP-2 and MMP-9 activity in EVLP perfusate and to measure endogenous MMP-2 and 9 activity in lung tissue before transplantation. Briefly, lung tissue before transplant was homogenized in cold PBS. Perfusate samples (20 μl) or tissue lysates were mixed with 2× non-reducing SDS sample buffer were loaded onto a 10% polyacrylamide gel containing 0.1% SDS and 0.1% gelatin. After electrophoresis to separate the proteins, the gel was washed in renaturing buffer (Novex Invitrogen) at room temperature, and then incubated in developing buffer (Novex Invitrogen) at 37° C. overnight (˜16-18 h). The next day, the gel was stained with Coomassie Brilliant Blue R-250 (Bio-Rad) and imaged (ChemiDoc, Bio-Rad). Enzyme activity, visualized as clear bands against the dark blue background, was quantified using Image-J (NIH).
# [1] = tested on: syndecan-1, glycosaminoglycans (GAGs); test: Glycocalyx components in lung grafts 2 h after transplantation (western blot, DMMB); assay type: in vivo, rat; conditions: vs control; for GAGs remaining in the lung tissue: DMMB assay, 2 h after transplant; for syndecan-1 protein expression in the plasma membrane: western blot, 2 h after transplantation
# Procedure: Western blotting. Whole cell lysate was isolated with 2% SDS buffer (2% SDS, 50 mM Tris-HCl pH 6.8, 10% glycerol) supplemented with protease inhibitors (Sigma-Aldrich). Membrane protein fractions were obtained with the Mem-PER Plus Membrane Protein Extraction Kit (Thermo Scientific) following manufacturer's instructions. Proteins were resolved on 10% SDS-PAGE followed by transfer to 0.2 μm nitrocellulose membranes (Bio-Rad Laboratories, Hercules, CA, USA). Membranes were blocked with 5% non-fat milk at room temperature for 2 h and then incubated with the following primary antibodies at 4° C. overnight: anti-syndecan-1 (1:1000; Santa Cruz Biotechnology, Inc., Dallas, Tx, USA), anti-heparanase-1 (1:1000; Boster Biological, Pleasanton, CA, USA), anti-VE-Cadherin (1:1000; Abcam), anti-HSP90 (1:1000; Abcam) and anti-@-actin (1:50,000; Sigma-Aldrich). Membranes were then incubated with either anti-mouse (1:5000) or anti-rabbit (1:3000) horse-radish peroxidase (HRP)-conjugated polyclonal secondary antibody (Abcam, Cambridge, MA, USA), or IRDye 800CW anti-rabbit IgG or 680CW anti-mice secondary antibody (LI-COR Biosciences, Lincoln, NE, USA) at room temperature for 2 h. Proteins were visualized using an enhanced chemiluminescence kit (Abcam), and protein bands were imaged and analyzed using Image Lab software (Version 6.0; Bio-Rad Laboratories, Inc.) or Odyssey 9120 Infrared Imaging System (LI-COR Biosciences).
# Determination of glycocalyx components in rat lung grafts. For rat lung tissue, syndecan-1 released into the perfusate during EVLP was measured with a rat-specific ELISA (Immunotag Rat SDC1 (Syndecan-1) ELISA, G-Biosciences, St. Louis, MO). Glycocalyx glycosaminoglycans (GAGs) were quantitated using the 1,9-dimethylmethylene blue (DMMB, Millipore Sigma) method with modifications. A 1 L solution of DMMB (pH˜3.0) was prepared by dissolving 16 mg DMMB in distilled H2O containing 3.04 g/A glycine, 1.6 g/A NaCl and 95 ml 0.1 M acetic acid. Briefly, 1 ml DMMB solution was added to 20 μl lung tissue lysate then incubated at room temperature for 1 h on a tube rotator. The tubes were then centrifuged at 14,000 rpm for 15 min at 4° C. Supernatants were carefully decanted, 200 μL sodium lauryl sulfate buffer (2.08 mM) was added to each pellet, and the tubes were vortexed until GAG-DMMB pellets were no longer visible. GAG content in each sample was measured spectrophotometrically at 656 nm.
Substance,"IL-1β mRNA expression (IL-6, IL-1β, MMP-9 mRNA)","IL-6 mRNA expression (IL-6, IL-1β, MMP-9 mRNA)","MMP-9 mRNA expression (IL-6, IL-1β, MMP-9 mRNA)",heparanase activity in lung tissue (heparanase),MMP-2 activity in EVLP perfusate (MMP-2),GAGs remaining in the lung tissue [1],syndecan-1 protein expression in the plasma membrane [1]
heparin,significantly lower,significantly lower,significantly lower,decreased; also recorded: inhibited,significantly less,significantly more GAGs remained,markedly higher
N-acetyl heparin [NAH],significantly lower,significantly lower,significantly lower,inhibited,significantly less,significantly more GAGs remained,markedly higher
